These results are taken from ChEMBL document CHEMBL1687918, “Cell-permeable and plasma-stable peptidomimetic inhibitors of the postsynaptic density-95/N-methyl-D-aspartate receptor interaction” (J Med Chem, 2011).

pKi: −log10 of the molar value. Active and inactive are the calls of the source. Peptide text beside a SMILES is read from it. A value given as a limit tells only on which side of the number the result lay.

The target of series [1] is T1, Disks large homolog 4 (Homo sapiens, UniProt P78352). The experiment in a line: Inhibition of PSD-95 PDZ2 domain-GluN2B interaction expressed in COS7 cells transfected with pGFP2-PDZ2 and pRluc-N2B at 500 uM by BRET assay. The class given is cell-based. To be noted: COS-7. (In general: BRET reads energy transfer from a luciferase to a nearby fluorophore.)
Target sequence in this assay (P78352 whole entry, looked up, the tested form may be a part): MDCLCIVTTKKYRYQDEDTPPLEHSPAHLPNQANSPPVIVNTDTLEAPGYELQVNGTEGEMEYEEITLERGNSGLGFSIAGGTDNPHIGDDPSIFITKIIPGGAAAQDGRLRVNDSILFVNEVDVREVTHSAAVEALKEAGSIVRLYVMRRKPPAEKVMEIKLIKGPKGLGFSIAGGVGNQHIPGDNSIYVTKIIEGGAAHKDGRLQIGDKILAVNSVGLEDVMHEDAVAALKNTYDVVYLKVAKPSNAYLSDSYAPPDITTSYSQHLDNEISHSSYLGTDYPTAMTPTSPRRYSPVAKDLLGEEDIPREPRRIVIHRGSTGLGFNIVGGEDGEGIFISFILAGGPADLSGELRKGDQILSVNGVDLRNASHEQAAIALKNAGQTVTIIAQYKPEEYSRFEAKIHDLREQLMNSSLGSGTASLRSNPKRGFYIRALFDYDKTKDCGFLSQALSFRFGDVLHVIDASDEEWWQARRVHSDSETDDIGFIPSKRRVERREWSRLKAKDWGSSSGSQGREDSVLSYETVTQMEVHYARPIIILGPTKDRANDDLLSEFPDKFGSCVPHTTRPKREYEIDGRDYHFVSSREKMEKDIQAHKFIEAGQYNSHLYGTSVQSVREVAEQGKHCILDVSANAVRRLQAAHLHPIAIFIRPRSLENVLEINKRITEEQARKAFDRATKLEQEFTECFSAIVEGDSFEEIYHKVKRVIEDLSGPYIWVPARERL
In series [2] the target is T1, Disks large homolog 4. The experiment in a line: Inhibition of PSD-95 PDZ3 domain by competitive fluorescence polarization assay. To be noted: for pKi: read-out: Ki. (Fluorescence polarisation rises when a labelled molecule tumbles more slowly, as on binding a larger partner.)
Target sequence in this assay (P78352 whole entry, the tested form may be a part): as the sequence (P78352 whole entry, looked up, the tested form may be a part) above
Series [3] addresses T1, Disks large homolog 4. The experiment in a line: Inhibition of PSD-95 PDZ2 domain by competitive fluorescence polarization assay.
Target sequence in this assay (P78352 whole entry, the tested form may be a part): as the sequence (P78352 whole entry, looked up, the tested form may be a part) above
Series [4] addresses T1, Disks large homolog 4. The experiment in a line: Inhibition of PSD-95 PDZ2 domain-GluN2B interaction expressed in COS7 cells transfected with pGFP2-PDZ2 and pRluc-N2B at 50 to 1000 uM by BRET assay. It is filed as cell-based. The note with it: COS-7.
Target sequence in this assay (P78352 whole entry, looked up, the tested form may be a part): as above
Series [5] can be described thus: Stability in human plasma assessed as half life by ESI-LC/MS. The class given is ADME, cell-free.
The target in series [6] is T1, Disks large homolog 4. The experiment in a line: Inhibition of PSD-95 PDZ2 domain-GluN2B interaction expressed in COS7 cells transfected with pGFP2-PDZ2 and pRluc-N2B at 100 uM by BRET assay. It is filed as cell-based. The note with it: COS-7.
Target sequence in this assay (P78352 whole entry, looked up, the tested form may be a part): as above

For `CC(C)[C@H](NC(=O)[C@H](C)NC(=O)[C@@H](NC(=O)[C@@H](N)CCC(=O)O)[C@@H](C)O)C(=O)O`, the inhibition result at Disks large homolog 4 [1] was “inactive”.

Regarding `CC(C)[C@H](NC(=O)[C@H](CC(=O)O)NC(=O)[C@@H](NC(=O)[C@@H](N)CCC(N)=O)[C@@H](C)O)C(=O)O`, the Ki result on Disks large homolog 4 [2] is given as “Not Active”.

As for `CC(C)[C@H](NC(=O)[C@H](CC(=O)O)NC(=O)[C@@H](NC(=O)[C@H](CCC(=O)O)NCCc1ccc2ccccc2c1)[C@@H](C)O)C(=O)O`, the pKi (as a rule, the negative decadic logarithm of the Ki, by convention in mol/L) on Disks large homolog 4 [2] was 3.68; at Disks large homolog 4 [3], 5.74. Further, the inhibition entry on Disks large homolog 4 [1] was “inactive”.

For `CC(C)[C@H](NC(=O)[C@H](CC(=O)O)NC(=O)[C@@H](NC(=O)[C@H](CCC(N)=O)NCCC1CCCCC1)[C@@H](C)O)C(=O)O`, on Disks large homolog 4 [2], the Ki entry was “Not Active”.

`CC(C)[C@H](NC(=O)[C@H](C)NC(=O)[C@@H](NC(=O)[C@H](CCC(=O)O)NCC1CCCCCC1)[C@@H](C)O)C(=O)O`: the results for the pKi on Disks large homolog 4 [2] and on Disks large homolog 4 [3] were 4.80 and 5.85, respectively.

In the case of `CC(C)[C@H](NC(=O)[C@H](CC(=O)O)NC(=O)[C@@H](NC(=O)[C@H](C)NCCC1CCCCC1)[C@@H](C)O)C(=O)O`, at Disks large homolog 4 [2], the pKi was under 3.40.

In the case of `C[C@H](NC(=O)[C@H](C)NC(=O)[C@H](C)NC(=O)[C@H](CCC(=O)O)NCCCc1ccc(Cl)c(Cl)c1)C(=O)O`, the inhibition entry on Disks large homolog 4 [4] is “inactive”.

Turning to `CC(C)[C@H](NC(=O)[C@H](CC(=O)O)NC(=O)[C@@H](NC(=O)[C@H](CCC(=O)O)NCCC1CCCCC1)[C@@H](C)O)C(=O)O`, the Ki result at Disks large homolog 4 [2] was “Not Active”. Further, the inhibition result on Disks large homolog 4 [1] was “inactive”.

Take `CC(C)[C@H](NC(=O)[C@H](C)NC(=O)[C@@H](NC(=O)[C@H](CCC(=O)O)NCCC1CC2CCC1C2)[C@@H](C)O)C(=O)O` (some centres undefined): the figures for the pKi on Disks large homolog 4 [2] and at Disks large homolog 4 [3] were 4.85 and 5.82, respectively.

With `CC(C)[C@H](NC(=O)[C@H](CC(=O)O)NC(=O)[C@@H](NC(=O)[C@@H](N)CCC(=O)O)[C@@H](C)O)C(=O)O` (H-ETDV-OH), the inhibition result at Disks large homolog 4 [1] was “inactive”.

On to `CC(C)[C@H](NC(=O)[C@H](C)NC(=O)[C@@H](NC(=O)[C@H](CCC(=O)O)NCCCCc1ccc2ccc3cccc4ccc1c2c34)[C@@H](C)O)C(=O)O`, for which the results for the negative-log Ki (pKi) on Disks large homolog 4 [2] and at Disks large homolog 4 [3] were 4.12 and 4.48, respectively.

`CC(C)[C@H](NC(=O)[C@H](C)NC(=O)[C@@H](NC(=O)[C@H](CCC(=O)O)NCC1CC2CCC1C2)[C@@H](C)O)C(=O)O` (some centres undefined): the pKi is 4.70 on Disks large homolog 4 [2] and 5.89 on Disks large homolog 4 [3].

In the case of `CN[C@@H](CCC(=O)O)C(=O)N[C@H](C(=O)N[C@@H](C)C(=O)N[C@H](C(=O)O)C(C)C)[C@@H](C)O`, the half-life (in general, the time needed for the level to fall by half in the phase considered) in series [5] was determined as 1.88 h. Moreover, the pKi at Disks large homolog 4 [3] was 5.02.

As to `CN[C@@H](CCC(=O)O)C(=O)N[C@H](C(=S)N[C@@H](C)C(=O)N[C@H](C(=O)O)C(C)C)[C@@H](C)O`, in series [5], the half-life was found to be 9 h. This compound also had a pKi on Disks large homolog 4 [3] of 3.66.

With `CC(C)[C@H](NC(=O)[C@H](CC(=O)O)NC(=O)[C@@H](NC(=O)[C@H](C)N)[C@@H](C)O)C(=O)O` (H-ATDV-OH), the Ki entry at Disks large homolog 4 [2] is recorded as “Not Active”.

Consider `CC(C)[C@H](NC(=O)[C@H](C)NC(=O)[C@@H](NC(=O)[C@H](C)NCCc1ccc(Cl)c(Cl)c1)[C@@H](C)O)C(=O)O`, for which the pKi on Disks large homolog 4 [2] is 4.19; at Disks large homolog 4 [3] it was 4.89.

Regarding `CC(C)[C@H](NC(=O)[C@H](C)NC(=O)[C@@H](NC(=O)[C@H](CCC(=O)O)NCCC1CCCCC1)[C@@H](C)O)C(=O)O`, the half-life in series [5] was found to be 0.483 h. For the same compound, at Disks large homolog 4 [3], the pKi is 6.20. The inhibition entry on Disks large homolog 4 [1] is “Active”. Also, the inhibition result on Disks large homolog 4 [4] is “Dose-dependent effect”.

For the compound `CC(C)[C@H](NC(=O)[C@H](C)NC(=O)[C@@H](NC(=O)[C@H](CCC(=O)O)NCCCc1ccc(F)c(F)c1F)[C@@H](C)O)C(=O)O`, the pKi at Disks large homolog 4 [2] is 4.36; on Disks large homolog 4 [3] it was 5.38.

In the case of `CC(C)[C@H](NC(=O)[C@H](C)NC(=O)[C@@H](NC(=O)[C@H](CCC(=O)O)NCCCc1c2ccccc2cc2ccccc12)[C@@H](C)O)C(=O)O`, the pKi was 4.02 on Disks large homolog 4 [2] and 5.05 on Disks large homolog 4 [3].

Turning to `CC(C)[C@H](NC(=O)[C@H](C)NC(=O)[C@@H](NC(=O)[C@H](C)NCCc1ccc2ccccc2c1)[C@@H](C)O)C(=O)O`, the pKi is 3.55 on Disks large homolog 4 [2] and 4.25 at Disks large homolog 4 [3].

For the compound `CC(C)[C@H](NC(=O)[C@H](C)NC(=O)[C@@H](NC(=O)[C@H](CCC(=O)O)NCC12CC3CC(CC(C3)C1)C2)[C@@H](C)O)C(=O)O`, the pKi is 5.17 on Disks large homolog 4 [2] and 5.68 on Disks large homolog 4 [3].

For `CC(C)[C@H](NC(=O)[C@H](C)NC(=O)[C@@H](NC(=O)[C@H](CCC(=O)O)NCCc1ccc(F)c(F)c1F)[C@@H](C)O)C(=O)O`, the pKi is 5.06 at Disks large homolog 4 [2] and 5.74 at Disks large homolog 4 [3].

Regarding `CC(C)[C@H](NC(=O)[C@H](C)NC(=O)[C@@H](NC(=O)[C@H](CCC(=O)O)NCCc1ccc2ccccc2c1)[C@@H](C)O)C(=O)O`, the half-life in series [5] came to 1.53 h. The inhibition result on Disks large homolog 4 [1] was “Active”. The inhibition entry at Disks large homolog 4 [4] was “Dose-dependent effect”.

Consider `CC(C)[C@H](NC(=O)[C@H](C)NC(=O)[C@@H](NC(=O)[C@H](CCC(=O)O)NCCc1ccc(Cl)c(Cl)c1)[C@@H](C)O)C(=O)O`, for which, in series [5], the half-life was 1.38 h. Besides, the inhibition entry at Disks large homolog 4 [1] was “Active”. In addition, on Disks large homolog 4 [4], the inhibition entry was “Dose-dependent effect”.

As for `CC(C)[C@H](NC(=O)[C@H](CC(=O)O)NC(=O)[C@@H](NC(=O)[C@H](CCC(=O)O)NCCc1ccc(Cl)c(Cl)c1)[C@@H](C)O)C(=O)O`, the results for the pKi at Disks large homolog 4 [2] and at Disks large homolog 4 [3] were 3.89 and 5.92, respectively. Moreover, at Disks large homolog 4 [1], the inhibition result was “inactive”.

With `CN[C@@H](CCC(=O)O)C(=O)N[C@H](C(=O)N[C@@H](C)C(=S)N[C@H](C(=O)O)C(C)C)[C@@H](C)O`, the half-life in series [5] was over 91.7 h. For the same compound, on Disks large homolog 4 [3], the pKi is 4.97.

Regarding `CC(C)[C@H](NC(=S)[C@H](C)NC(=O)[C@@H](NC(=O)[C@H](CCC(=O)O)NCCC1CCCCC1)[C@@H](C)O)C(=O)O`, in series [5], the half-life was over 117 h. The pKi on Disks large homolog 4 [2] is 4.96; at Disks large homolog 4 [3] it was 6.20. Further, the inhibition result at Disks large homolog 4 [1] and on Disks large homolog 4 [4] was “Active” each time.

Take `CN[C@@H](CCC(=O)O)C(=S)N[C@H](C(=O)N[C@@H](C)C(=O)N[C@H](C(=O)O)C(C)C)[C@@H](C)O`: the half-life in series [5] was over 91.7 h. Also, the negative logarithm of the Ki (pKi) on Disks large homolog 4 [3] is 4.49.

For `CC(C)[C@H](NC(=O)[C@H](C)NC(=O)[C@@H](NC(=O)[C@H](CCC(=O)O)NCCCc1ccc2ccccc2c1)[C@@H](C)O)C(=O)O`, the pKi on Disks large homolog 4 [2] was 4.28; on Disks large homolog 4 [3] it was 5.30.

As to `CC(C)[C@H](NC(=S)[C@H](C)NC(=O)[C@@H](NC(=O)[C@H](CCC(=O)O)NCCc1ccc(Cl)c(Cl)c1)[C@@H](C)O)C(=O)O`, in series [5], the half-life was over 117 h. Further, the negative-log Ki (pKi) on Disks large homolog 4 [2] was 5.08; on Disks large homolog 4 [3], 6.00. The inhibition result at Disks large homolog 4 [1] was “Active”. Besides, the inhibition entry at Disks large homolog 4 [4] was “Dose-dependent effect”.

As to `CC(C)[C@H](NC(=O)[C@H](C)NC(=O)[C@@H](NC(=O)[C@H](CCC(=O)O)NCCC1CCCCCC1)[C@@H](C)O)C(=O)O`, the pKi at Disks large homolog 4 [2] was 5.03; on Disks large homolog 4 [3] it was 5.92.

Turning to `CC(C)[C@H](NC(=S)[C@H](C)NC(=O)[C@@H](NC(=O)[C@H](CCC(=O)O)NCCc1ccc2ccccc2c1)[C@@H](C)O)C(=O)O`, the half-life in series [5] is over 117 h. Further, the values for the pKi on Disks large homolog 4 [2] and on Disks large homolog 4 [3] were 4.96 and 5.96, respectively. The inhibition result at Disks large homolog 4 [1] is “Active”. Besides, the inhibition entry at Disks large homolog 4 [4] was “Dose-dependent effect”.

Turning to `CC(C)[C@H](NC(=O)[C@H](C)NC(=O)[C@@H](NC(=O)[C@H](C)N)[C@@H](C)O)C(=O)O` (H-ATAV-OH), the pKi at Disks large homolog 4 [2] is under 3.40. In addition, the inhibition entry at Disks large homolog 4 [1] is “inactive”.

Take H-RRRRRRRRKLSSIESDV-OH: the inhibition entry at Disks large homolog 4 [6] was “Active”.

As to `CC(C)[C@H](NC(=O)[C@H](C)NC(=O)[C@@H](NC(=O)[C@@H](N)CCC(N)=O)[C@@H](C)O)C(=O)O` (H-QTAV-OH), the negative-log Ki (pKi) on Disks large homolog 4 [2] was under 3.40; at Disks large homolog 4 [3], 3.96.

In the case of `CC(C)[C@H](NC(=O)[C@H](C)NC(=O)[C@@H](NC(=O)[C@H](CCC(=O)O)NCCc1ccc2ccc3cccc4ccc1c2c34)[C@@H](C)O)C(=O)O`, the values for the negative logarithm of the Ki (pKi) on Disks large homolog 4 [2] and on Disks large homolog 4 [3] were 4.29 and 4.80, respectively.
